BindingDB's records for patent US12552799 (Nxera Pharma, 2026)

Assays:
[1] = target: Adenosine receptor A2a (Homo sapiens, UniProt P29274); assay: Adenosine Receptor Binding Assay
Description: (§1) Inhibition binding assays were performed using 0.2 μg of membranes prepared from […] cells infected with BacMam human adenosine A2A receptor or 1.4 μg of membranes […] receptor. Membranes were incubated in 50 mM Tris-HCl (HEK293-hA2A; pH 7.4) or 50 mM Tris-HCl, 100 mM NaCl, 10 mM MgCl2 (CHO-hA1; pH 7.4) in the presence of varying concentrations of test compound and 1 nM [3H]ZM241385 (HEK293-hA2A) or [3H]DPCPX (CHO-hA1) at 25° C. for 1 h. The assay was then terminated by rapid filtration onto GF/B grade Unifilter plates using a TomTec cell harvester, followed by 5×0.5 ml washes with ddH2O. Nonspecific binding was defined in the presence of 1 μM CGS15943 (HEK293-hA2A) or 1 μM DPCPX (CHO-hA1). Bound radioactivity was determined by liquid scintillation counting and inhibition curves were analysed using a four-parameter logistic equation.

[2] = target: T1, Adenosine receptor A1 (Homo sapiens, UniProt P30542); assay: Adenosine Receptor Binding Assay
T1 sequence (P30542 whole entry): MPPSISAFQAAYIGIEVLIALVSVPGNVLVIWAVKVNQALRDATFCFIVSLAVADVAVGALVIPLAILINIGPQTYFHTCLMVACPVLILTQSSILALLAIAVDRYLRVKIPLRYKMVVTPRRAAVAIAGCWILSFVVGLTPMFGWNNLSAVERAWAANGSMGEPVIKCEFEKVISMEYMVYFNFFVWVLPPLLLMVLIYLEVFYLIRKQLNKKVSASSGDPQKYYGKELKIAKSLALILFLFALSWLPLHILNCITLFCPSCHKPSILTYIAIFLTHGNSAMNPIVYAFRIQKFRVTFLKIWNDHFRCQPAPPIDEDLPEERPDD
Description: as §1

Adenosine receptor A2a, sequence (P29274 whole entry): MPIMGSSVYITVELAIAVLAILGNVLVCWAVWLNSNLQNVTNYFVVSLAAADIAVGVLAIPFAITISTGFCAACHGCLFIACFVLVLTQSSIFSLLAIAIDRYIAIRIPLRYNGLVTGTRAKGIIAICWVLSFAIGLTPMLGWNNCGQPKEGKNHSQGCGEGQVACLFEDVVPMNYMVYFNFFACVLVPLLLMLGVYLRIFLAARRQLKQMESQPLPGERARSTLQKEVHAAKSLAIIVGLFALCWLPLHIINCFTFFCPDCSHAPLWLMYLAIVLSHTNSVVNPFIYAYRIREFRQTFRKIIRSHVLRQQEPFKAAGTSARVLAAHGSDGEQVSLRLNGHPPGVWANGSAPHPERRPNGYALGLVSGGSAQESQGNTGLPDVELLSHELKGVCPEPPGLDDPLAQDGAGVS

Row | Ki [1] [nM] | Ki [2] [nM] | SMILES
1 | 158 | > 3160 | C[C@@H]1CN(c2c(-c3ccccc3)nc(N)n3c(=O)n(CCCF)nc23)C[C@H](C)O1 [US12552799, Example 1-2]
2 | 63.1 | > 3160 | CCCn1nc2c(N3C[C@@H](C)O[C@@H](C)C3)c(-c3ccccc3)nc(N)n2c1=O [US12552799, Example 1-4]
3 | 158 | 2000 | C[C@@H]1CN(c2c(-c3ccccc3)nc(N)n3c(=O)n(C[C@@H]4CCCN4C)nc23)C[C@H](C)O1 [US12552799, Example 1-7]
4 | 10 | > 2000 | C[C@@H]1CN(c2c(-c3ccccc3)nc(N)n3c(=O)n(C[C@H]4CCCO4)nc23)C[C@H](C)O1 [US12552799, Example 1-8]
5 | 0.631 | 100 | Cc1cc(-c2c(-c3ccccc3)nc(N)n3c(=O)n(Cc4ccc(F)cn4)nc23)cc(C)c1O [US12552799, Example 3-1]
6 | 0.158 | 63.1 | Cc1cc(-c2c(-c3ccc(F)cc3)nc(N)n3c(=O)n(Cc4ccc(Cl)cn4)nc23)cc2ocnc12 [US12552799, Example 4-2]
7 | 0.251 | 25.1 | Cc1cc(-c2c(-c3ccccc3)nc(N)n3c(=O)n(Cc4ccc(F)cn4)nc23)cc2c1N=NC2 [US12552799, Example 4-4]
8 | 0.079 | 7.94 | Cc1ocnc1Cn1nc2c(-c3cc(C)c4ncoc4c3)c(-c3ccccc3)nc(N)n2c1=O [US12552799, Example 4-6]
